Results: the supplement of paper PMC13380429

Assays:
[1] = tested on: A549-ACE2 infected with SARS-CoV-2; test: morphology score (similarity to uninfected cells); higher = more like uninfected cells; settings: 24 h
[2] = tested on: HepG2; test: drug sensitivity score (DSS) for viability; higher = more toxic; extreme values may be limits of the assay; settings: 72 h
[3] = tested on: Vero E6; test: as above; settings: 72 h
[4] = tested on: Calu-3; test: as above; settings: 72 h
[5] = tested on: U2OS; test: as above; settings: 72 h
[6] = tested on: Caco-2; test: as above; settings: 72 h
[7] = tested on: A549-ACE2 infected with SARS-CoV-2; test: SARS-CoV-2 infection rate relative to DMSO; higher = more infection; settings: 24 h
[8] = tested on: Vero E6; test: relative viability EC50 (midpoint between 100% and the lowest measured viability); higher = less toxic; settings: 72 h
[9] = tested on: Calu-3; test: as above; settings: 72 h
[10] = tested on: U2OS; test: as above; settings: 72 h
[11] = tested on: Caco-2; test: as above; settings: 72 h
[12] = tested on: HepG2; test: cell viability relative to DMSO; higher = less toxic; settings: 72 h
[13] = tested on: Vero E6; test: as above; settings: 72 h
[14] = tested on: Calu-3; test: as above; settings: 72 h
[15] = tested on: U2OS; test: as above; settings: 72 h
[16] = tested on: Caco-2; test: as above; settings: 72 h
[17] = tested on: A549-ACE2 infected with SARS-CoV-2; test: cell count relative to DMSO; higher = less toxic; settings: 24 h
[18] = tested on: A549-ACE2; test: drug-induced phospholipidosis relative to tamoxifen; higher = more phospholipidosis
[19] = tested on: HepG2; test: relative viability EC50 (midpoint between 100% and the lowest measured viability); higher = less toxic; settings: 72 h

COc1cc2c(NC3CCN(C4CCCCC4)CC3)nc(N3CCCN(C(C)C)CC3)nc2cc1OCCCN1CCCCC1 [UNC0646]
Settings	SARS-CoV-2 infection rate, [7] [%]	cell count, [17] [%]	cell viability, [12] [%]	cell viability, [13] [%]	cell viability, [14] [%]	cell viability, [15] [%]	cell viability, [16] [%]	morphology score, [1]
1 nM	–	–	88.2	92.2	96.5	103	96	–
10 nM	–	–	96.7	97.6	92.3	102	97.6	–
100 nM	–	–	90.9	94.3	93.6	107	100	–
0.3 µM	92	106	–	–	–	–	–	0.28
1000 nM	–	–	102	92	90.4	97	97.6	–
3 µM	68	110	–	–	–	–	–	0.67
10 µM	26	112	–	–	–	–	–	0.92
10000 nM	–	–	65.3	100	83.9	94.7	93.9	–
30 µM	47	25	–	–	–	–	–	-0.11

Settings	drug sensitivity score	relative viability EC50 [µM]
[2]	1.5	–
[3]	0	–
[4]	0.6	–
[5]	0	–
[6]	0	–
[8]	–	> 10
[9]	–	> 10
[10]	–	> 10
[11]	–	> 10

drug-induced phospholipidosis [%], [18]
Settings	0.3 µM	0.833333 µM	3.33333 µM	6.66667 µM	10 µM	30 µM
24 h	-0.25	5.64	3.14	8.62	22	44.4
48 h	1.05	5.57	5.07	9.69	24.5	45.2
72 h	0.206	4.62	7.33	11.5	28	–

CCCC[C@@H](C=O)NC(=O)[C@H](CC(C)C)NC(=O)OCc1ccccc1 [calpeptin]
Settings	SARS-CoV-2 infection rate, [7] [%]	cell count, [17] [%]	cell viability, [12] [%]	cell viability, [13] [%]	cell viability, [15] [%]	cell viability, [16] [%]	morphology score, [1]
1 nM	–	–	99.8	97.5	104	96.8	–
10 nM	–	–	95.1	99.6	98.8	97	–
100 nM	–	–	98.2	102	103	100	–
0.3 µM	56	114	–	–	–	–	0.69
1000 nM	–	–	98.3	98	95.8	94.5	–
3 µM	29	120	–	–	–	–	0.91
10 µM	13	123	–	–	–	–	0.9
10000 nM	–	–	92.2	92.1	96.4	97.7	–
30 µM	8	118	–	–	–	–	0.77

Settings	drug sensitivity score	relative viability EC50 [µM]
[2]	0	–
[3]	0	–
[5]	0	–
[6]	0	–
[8]	–	> 10
[10]	–	> 10
[11]	–	> 10
[19]	–	> 10

drug-induced phospholipidosis [%], [18]
Settings	0.3 µM	0.833333 µM	3.33333 µM	6.66667 µM	10 µM	30 µM
24 h	5.73	6.24	10.6	21.3	26.2	64.5
48 h	3.11	2.48	7.49	16.9	26.6	77.2
72 h	4.92	2.16	4.48	13.5	24.6	87.8

CN(NC(=O)CC(=O)NN(C)C(=S)c1ccccc1)C(=S)c1ccccc1 [elesclomol]
Settings	SARS-CoV-2 infection rate, [7] [%]	cell count, [17] [%]	cell viability, [12] [%]	cell viability, [13] [%]	cell viability, [14] [%]	cell viability, [15] [%]	cell viability, [16] [%]	morphology score, [1]
1 nM	–	–	93.4	91.5	107	89.6	93.9	–
10 nM	–	–	99.4	96.7	83.6	89.5	74.4	–
100 nM	–	–	69.2	69.1	68.7	56.9	7	–
0.3 µM	93	93	–	–	–	–	–	0.17
1000 nM	–	–	66.7	41.7	29.6	7.8	9.7	–
3 µM	68	104	–	–	–	–	–	0.63
10 µM	99	107	–	–	–	–	–	0.52
10000 nM	–	–	82.1	86	99.4	90.6	4.1	–
30 µM	86	100	–	–	–	–	–	0.39

Settings	drug sensitivity score	relative viability EC50 [µM]
[2]	9.7	–
[3]	8.7	–
[4]	0	–
[5]	21.4	–
[6]	32.2	–
[8]	–	0.637
[9]	–	> 10
[10]	–	0.1
[11]	–	0.0174

[18]
Settings	drug-induced phospholipidosis [%]
0.3 µM, 24 h	12.3
0.833333 µM, 24 h	9.68
3.33333 µM, 24 h	7.09
6.66667 µM, 24 h	7.28
10 µM, 24 h	9.51
30 µM, 24 h	2.54
30 µM, 48 h	6.18
30 µM, 72 h	10

C[S+]([O-])CCCCN=C=S (stereo not drawn) [sulforaphane]
Settings	SARS-CoV-2 infection rate, [7] [%]	cell count, [17] [%]	cell viability, [12] [%]	cell viability, [13] [%]	cell viability, [14] [%]	cell viability, [15] [%]	cell viability, [16] [%]	morphology score, [1]
1 nM	–	–	90.5	103	91	100	92.1	–
10 nM	–	–	89.7	108	91	104	107	–
100 nM	–	–	90.6	104	96	97.7	104	–
0.3 µM	95	104	–	–	–	–	–	0.21
1000 nM	–	–	79.8	94.6	108	97.9	91.3	–
3 µM	95	99	–	–	–	–	–	-0.05
10 µM	79	85	–	–	–	–	–	0.33
10000 nM	–	–	72.3	90.2	97.9	77.4	70.9	–
30 µM	18	109	–	–	–	–	–	0.82

Settings	drug sensitivity score	relative viability EC50 [µM]
[2]	4.1	–
[3]	0	–
[4]	0	–
[5]	1.1	–
[6]	2.5	–
[8]	–	> 10
[9]	–	> 10
[10]	–	> 10

drug-induced phospholipidosis [%], [18]
Settings	0.3 µM	0.833333 µM	3.33333 µM	6.66667 µM	10 µM	30 µM
24 h	1.81	-7.24	-2.29	1.54	3.49	22.7
48 h	1.78	-7.01	-5.48	-4.04	-0.65	15.9
72 h	-0.306	-6.99	-5.48	-5.9	-2.75	7.99

Cc1cc(-n2c(=O)[nH]c(=O)n(C)c2=O)ccc1Oc1ccc(SC(F)(F)F)cc1 [toltrazuril]
Settings	drug sensitivity score	relative viability EC50 [µM]
[2]	0	–
[3]	0	–
[4]	0	–
[5]	0	–
[6]	0	–
[8]	–	> 10
[9]	–	> 10
[10]	–	> 10
[11]	–	> 10
[19]	–	> 10

cell viability [%]
Settings	[12]	[13]	[14]	[15]	[16]
1 nM	90.4	99.5	98.8	97.2	104
10 nM	107	105	83.1	95.2	109
100 nM	99.5	101	105	93.1	105
1000 nM	95.9	96.3	106	99.6	97.1
10000 nM	102	95.8	101	92.1	97.4

CCCc1c(OCCCCc2nnn[nH]2)ccc(C(C)=O)c1O [tomelukast]
Settings	drug sensitivity score	relative viability EC50 [µM]
[2]	1.5	–
[3]	0	–
[4]	0	–
[5]	0	–
[6]	0	–
[8]	–	> 10
[9]	–	> 10
[10]	–	> 10
[11]	–	> 10
[19]	–	> 10

cell viability [%]
Settings	[12]	[13]	[14]	[15]	[16]
1 nM	95.6	94.5	87.4	94.9	88.9
10 nM	90.3	98.5	105	103	93.9
100 nM	94.5	107	107	98.1	97.8
1000 nM	82.9	96.6	102	99.7	105
10000 nM	84.8	106	104	99.6	97.6

CN1C(=O)OC(C)(C)C1=O [trimethadione]
Settings	drug sensitivity score	relative viability EC50 [µM]
[2]	3.4	–
[3]	0	–
[4]	0	–
[5]	0	–
[6]	0	–
[8]	–	> 10
[9]	–	> 10
[10]	–	> 10
[11]	–	> 10
[19]	–	> 10

cell viability [%]
Settings	[12]	[13]	[14]	[15]	[16]
1 nM	103	100	96.1	103	101
10 nM	105	100	102	99.9	97.3
100 nM	93.6	101	97.9	103	114
1000 nM	80.4	85.1	118	105	90
10000 nM	90	104	108	108	93.3

COc1cc(C[C@@H]2NCCc3cc(O)c(O)cc32)cc(OC)c1OC [trimethoquinol]
Settings	drug sensitivity score	relative viability EC50 [µM]
[2]	1.1	–
[3]	0	–
[4]	0	–
[5]	0	–
[6]	0.3	–
[8]	–	> 10
[9]	–	> 10
[10]	–	> 10
[11]	–	> 10
[19]	–	> 10

cell viability [%]
Settings	[12]	[13]	[14]	[15]	[16]
1 nM	110	103	91.7	89.5	91.3
10 nM	99.2	93.1	88.9	97	114
100 nM	112	108	101	97.3	118
1000 nM	90.6	93.8	86	102	107
10000 nM	83.5	96.9	95.7	107	80.3

N#CC(C#N)=Cc1ccc(O)c(O)c1 [tyrphostin-AG-18]
Settings	drug sensitivity score	relative viability EC50 [µM]
[2]	0	–
[3]	0	–
[4]	0	–
[5]	0	–
[6]	0	–
[8]	–	> 10
[9]	–	> 10
[10]	–	> 10
[11]	–	> 10
[19]	–	> 10

cell viability [%]
Settings	[12]	[13]	[14]	[15]	[16]
1 nM	93	96.4	93.5	96.1	88.2
10 nM	96.8	92.1	104	98.1	96.4
100 nM	97.7	96.6	105	95.2	93.9
1000 nM	102	94.9	107	96.5	89.2
10000 nM	87.9	94.9	111	92.1	91.6

COc1cc(N)c(Cl)cc1C(=O)NC1CN2CCC1CC2 (stereo not drawn) [zacopride]
Settings	drug sensitivity score	relative viability EC50 [µM]
[2]	0	–
[3]	0	–
[4]	0	–
[5]	0	–
[6]	0	–
[8]	–	> 10
[9]	–	> 10
[10]	–	> 10
[11]	–	> 10
[19]	–	> 10

cell viability [%]
Settings	[12]	[13]	[14]	[15]	[16]
1 nM	107	98.9	96.9	92.5	101
10 nM	99.5	92.8	100	96.3	97.6
100 nM	102	97.9	97	96.7	97.6
1000 nM	100	97.4	85	98.3	95.7
10000 nM	109	106	95.3	92.2	110
